Converted amounts (≈) assume the structure as drawn. Counter-ions that a name gives are not always drawn. Like-named read-outs stand apart in the source and are kept apart here.
How the values were obtained:
[1] = Kinetic Solubility Analysis (CLND); format: physicochemical; details: 26 °C, kinetic from dmso stock
Protocol: Kinetic Solubility Analysis (CLND) Buffer Preparation:
0.1N HCl: Hydrochloric acid, 0.1N standardized solution.
1×PBS, 7.4: Phosphate Buffered Saline solution 10×, PBS 50 mL was added to approximately 450 mL HPLC grade H2O. The volume of the solution was then adjusted to 500 mL for a total dilution factor of 1:10 and a final PBS concentration of IX.
Kinetic Solubility from DMSO Stocks:
The final DMSO concentration is 1.0% and maximum theoretical compound concentration is 100 μM (assuming stock concentration of 10 mM). The filter plate was sealed. […] The collection plate was sealed for analysis. Filtrates were injected into the nitrogen detector for quantification.
The equimolar nitrogen response of the detector was calibrated using standards which spanned the dynamic range of the instrument from […] nitrogen. The filtrates were quantified with respect to this calibration curve. The calculated solubility values were corrected for background nitrogen present in the DMSO and the media used to prepare the samples.

[2] = in vivo; details: beagle, dog, po
Protocol: Pharmacokinetic Profiling Dog PK
(§6) Compound 11 was formulated in a suspension formulation (1% HPMC and 0.05% Tween 20 in DI Water) and administered orally at 10 mg-eq/kg to a dosing group consisting of three non-naïve male beagle dogs. At dosing, the animals weighed between 9 to 12 kg. The animals were fasted overnight prior to dose administration and up to four hours after dosing. Serial venous blood samples (approximately 1.0 mL each) were obtained at pre-dose, 0.25, 0.50, 1, 2, 4, 6, 8, 12, and 24 hours post-dose. The blood samples were collected into Vacutainer™ tubes containing EDTA-K2 as the anti-coagulant and were immediately placed on wet ice pending centrifugation for plasma. An LC/MS/MS method was used to measure the concentration of compound 11 and compound D in plasma. […] In a second experiment, compound D was dosed orally as a suspension using the same formulation and dose level.

[3] = test system: HIV-1 (IIIB) in MT-4 cells; test: MT-4 HIV Assay; format: cell-based
Protocol: Compounds were tested in a high-throughput 384-well assay format for their ability to inhibit the replication of HIV-1 (IIIB) in MT-4 cells. Compounds were serially diluted (1:3) in DMSO on 384-well polypropylene plates and further diluted 200-fold into complete RPMI media (10% FBS, 1% P/S) using the Biotek Micro Flow and Agilent ECHO acoustic dispenser. Each plate contained up to 8 test compounds, with negative (No Drug Control) and 5 μM AZT positive controls. MT-4 cells were pre-infected with 10 μL of either RPMI (mock-infected) or a fresh 1:250 dilution of an HIV-1 (IIIB) concentrated virus stock. Infected and uninfected MT-4 cells were further diluted in complete RPMI media and added to each plate using a Micro Flow dispenser. After 5 days incubation in a humidified and temperature controlled incubator (37° C.), Cell Titer Glo (Promega) was added to the assay plates to quantify the amount of luciferase. EC50 values were defined as the compound concentration that causes a 50% decrease in luminescence signal, and were calculated using a sigmoidal dose-response model to generate curve fits.

[4] = Liver microsomal stability (rat); format: in vitro ADME; details: rat liver microsomes 0.5 mg/mL, 1 μM compound, NADPH-regenerating system, 37° C.
Protocol: (§1) Liver Microsomal Stability Protocol
(§2) Test compounds and one control compound (verapamil) were tested in 3 different species in duplicate sets.
(§3) Test compound concentration: 1 μM; Protein concentration: 0.5 mg/mL (for rat and human liver microsomes); Cofactor: NADPH-Regenerating system (NRS) solution. Time-points: 2, 12, 25, 45, and 65 minutes.
(§4) Reaction composition (in each incubation well) contains:
(§5) At an incubation temperature of 37° C., the reaction was started with addition of NADPH Regeneration System, at each time point, 25 μL of the reaction mixture was removed and added to a plate with 225 μL quenching solution (50% MeOH, 25% ACN, 25% H2O, and 200 nM labetalol as internal standard). After plates were vortexed, they were centrifuged for 30 minutes to remove proteins. About 100 μL supernatant was removed to a new plate and diluted with 150 μL water. About 20 μL of the mixture was injected into an LC/MS/MS system to monitor the compound's response. In vitro measured t1/2 was used to calculate Clint values.

[5] = Liver microsomal stability (human); format: in vitro ADME; details: human liver microsomes 0.5 mg/mL, 1 μM compound, NADPH-regenerating system, 37° C.
Protocol: as §1, §2, §3, §4, §5

[6] = male, beagle, dog, in vivo
Protocol: Pharmacokinetic Profiling Dog PK
as §6

[7] = Rat PK; format: in vivo; details: compound 14 oral solution, 75 mg-eq/kg dose group, male SD rats, LC/MS/MS
Protocol: Compound 14 was formulated in a solution formulation (84% 10 mM HCl; 15% 2-Hydroxypropyl-β-Cyclodextrin; 1% Dimethyl sulfoxide pH 2.0) and administered orally at 2.5 and 75 mg-eq/kg to a dosing groups consisting of three male SD rats. At dosing, the animals weighed between 270 and 350 g. […] Trace amounts of compound 14 were detected in plasma in the 75 mg-eq/kg dose group.

[8] = 0.1N HCl, pH 1, simulated gastric fluid, read-out: Solubility, HCl, pH 1.0, RT
[9] = PBS, pH 7.4, aqueous buffer, read-out: Solubility, PBS, pH 7.4, RT
[10] = Human immunodeficiency virus 1, MT4, 120 h, HIV-1 (IIIB) replication in MT-4 cells, 5 days incubation, Cell Titer Glo, read-out: EC50

Compound	solubility at 24 h [1, 8] [µM]	solubility at 24 h [1, 9] [µM]	bioavailability [2] [%]	EC50 [3, 10] [nM]	Rat. Pred. Cl. (L/H/kg) [4] [L/H/kg]	Human Pred Cl. (L/H/kg) [5] [L/H/kg]	bioavailability of compound D [6] [%]	EC50 ([3]; Human immunodeficiency virus 1, IIIB, MT4, 120 h) [nM]	concentration of compound 14 in plasma [7]
COC(=O)N[C@H](C(=O)N[C@@H](Cc1ccc(C#Cc2cnc(N3CC4CCC(C3)N4C3COC3)nc2)cc1)[C@@H](O)CN(Cc1c(F)cc(-c2ccn(C(F)F)n2)cc1F)NC(=O)[C@@H](NC(=O)OC)C(C)(C)C(F)(F)F)C(C)(C)C(F)(F)F [Compound D, methyl ((5S,8S,9S,14S)-11-(4-(1-(difluoromethyl)-1H-pyrazol-3-yl)-2,6-difluorobenzyl)-16,16,16-trifluoro-9-hydroxy-15,15-dimethyl-8-(4-((2-(8-(oxetan-3-yl)-3,8-diazabicyclo[3.2.1]octan-3-yl)pyrimidin-5-yl)ethynyl)benzyl)-3,6,13-trioxo-5-(1,1,1-trifluoro-2-methylpropan-2-yl)-2-oxa-4,7,11,12-tetraazahexadecan-14-yl)carbamate, reference compound]	19.5 (≈ 22.5 µg/mL)	< 1	2.6 ± 1.1	–	–	–	–	–	–
COC(=O)N[C@H](C(=O)N[C@@H](Cc1ccc(C#Cc2cnc(N3CC4CCC(C3)N4C3COC3)nc2)cc1)[C@H](CN(Cc1c(F)cc(-c2ccn(C(F)F)n2)cc1F)NC(=O)[C@@H](NC(=O)OC)C(C)(C)C(F)(F)F)OC=O)C(C)(C)C(F)(F)F [Example 1, (5S,10S,11S,14S)-8-(4-(1-(difluoromethyl)-1H-pyrazol-3-yl)-2,6-difluorobenzyl)-11-(4-((2-(8-(oxetan-3-yl)-3,8-diazabicyclo[3.2.1]octan-3-yl)pyrimidin-5-yl)ethynyl)benzyl)-3,6,13,16-tetraoxo-5,14-bis(1,1,1-trifluoro-2-methylpropan-2-yl)-2,17-dioxa-4,7,8,12,15-pentaazaoctadecan-10-yl formate]	20	< 1	–	4.62	<0.4	0.37	–	–	–
COC(=O)N[C@H](C(=O)N[C@@H](Cc1ccc(C#Cc2cnc(N3CC4CCC(C3)N4C3COC3)nc2)cc1)[C@H](CN(Cc1c(F)cc(-c2ccn(C(F)F)n2)cc1F)NC(=O)[C@@H](NC(=O)OC)C(C)(C)C(F)(F)F)OC(=O)CCCN1CCOCC1)C(C)(C)C(F)(F)F [Example 2, (5S,10S,11S,14S)-8-(4-(1-(difluoromethyl)-1H-pyrazol-3-yl)-2,6-difluorobenzyl)-11-(4-((2-(8-(oxetan-3-yl)-3,8-diazabicyclo[3.2.1]octan-3-yl)pyrimidin-5-yl)ethynyl)benzyl)-3,6,13,16-tetraoxo-5,14-bis(1,1,1-trifluoro-2-methylpropan-2-yl)-2,17-dioxa-4,7,8,12,15-pentaazaoctadecan-10-yl 4-morpholinobutanoate]	81 (≈ 106 µg/mL)	< 1	–	56.6	0.84	0.53	–	–	–
COC(=O)N[C@H](C(=O)N[C@@H](Cc1ccc(C#Cc2cnc(N3CC4CCC(C3)N4C3COC3)nc2)cc1)[C@H](CN(Cc1c(F)cc(-c2ccn(C(F)F)n2)cc1F)NC(=O)[C@@H](NC(=O)OC)C(C)(C)C(F)(F)F)OC(=O)c1cccnc1)C(C)(C)C(F)(F)F [Example 5, (5S,10S,11S,14S)-8-(4-(1-(difluoromethyl)-1H-pyrazol-3-yl)-2,6-difluorobenzyl)-11-(4-((2-(8-(oxetan-3-yl)-3,8-diazabicyclo[3.2.1]octan-3-yl)pyrimidin-5-yl)ethynyl)benzyl)-3,6,13,16-tetraoxo-5,14-bis(1,1,1-trifluoro-2-methylpropan-2-yl)-2,17-dioxa-4,7,8,12,15-pentaazaoctadecan-10-yl nicotinate]	89.2 (≈ 112 µg/mL)	< 1	–	1140	0.58	0.28	–	–	–
COC(=O)N[C@H](C(=O)N[C@@H](Cc1ccc(C#Cc2cnc(N3CC4CCC(C3)N4C3COC3)nc2)cc1)[C@H](CN(Cc1c(F)cc(-c2ccn(C(F)F)n2)cc1F)NC(=O)[C@@H](NC(=O)OC)C(C)(C)C(F)(F)F)OC(=O)c1ccccn1)C(C)(C)C(F)(F)F [Example 6, (5S,10S,11S,14S)-8-(4-(1-(difluoromethyl)-1H-pyrazol-3-yl)-2,6-difluorobenzyl)-11-(4-((2-(8-(oxetan-3-yl)-3,8-diazabicyclo[3.2.1]octan-3-yl)pyrimidin-5-yl)ethynyl)benzyl)-3,6,13,16-tetraoxo-5,14-bis(1,1,1-trifluoro-2-methylpropan-2-yl)-2,17-dioxa-4,7,8,12,15-pentaazaoctadecan-10-yl picolinate]	38.5 (≈ 48.6 µg/mL)	< 1	–	278	<0.4	0.29	–	–	–
COC(=O)N[C@H](C(=O)N[C@@H](Cc1ccc(C#Cc2cnc(N3CC4CCC(C3)N4C3COC3)nc2)cc1)[C@H](CN(Cc1c(F)cc(-c2ccn(C(F)F)n2)cc1F)NC(=O)[C@@H](NC(=O)OC)C(C)(C)C(F)(F)F)OC(=O)OCOP(=O)(O)O)C(C)(C)C(F)(F)F [Example 11, methyl ((5S,10S,11S,14S)-8-(4-(1-(difluoromethyl)-1H-pyrazol-3-yl)-2,6-difluorobenzyl)-16,16,16-trifluoro-15,15-dimethyl-11-(4-((2-(8-(oxetan-3-yl)-3,8-diazabicyclo[3.2.1]octan-3-yl)pyrimidin-5-yl)ethynyl)benzyl)-3,6,13-trioxo-10-((((phosphonooxy)methoxy)carbonyl)oxy)-5-(1,1,1-trifluoro-2-methylpropan-2-yl)-2-oxa-4,7,8,12-tetraazahexadecan-14-yl)carbamate]	–	–	–	–	–	–	5.5±2.6	–	–
COC(=O)N[C@H](C(=O)N[C@@H](Cc1ccc(C#Cc2cnc(N3CC4CCC(C3)N4C3COC3)nc2)cc1)[C@H](CN(Cc1c(F)cc(-c2ccn(C(F)F)n2)cc1F)NC(=O)[C@@H](NC(=O)OC)C(C)(C)C(F)(F)F)OC(=O)CN(C)C(=O)[C@@H](N)Cc1ccccc1)C(C)(C)C(F)(F)F [Example 14, (2S,3S)-1-(1-(4-(1-(difluoromethyl)-1H-pyrazol-3-yl)-2,6-difluorobenzyl)-2-((S)-4,4,4-trifluoro-2-((methoxycarbonyl)amino)-3,3-dimethylbutanoyl)hydrazinyl)-4-(4-((2-(8-(oxetan-3-yl)-3,8-diazabicyclo[3.2.1]octan-3-yl)pyrimidin-5-yl)ethynyl)phenyl)-3-((S)-4,4,4-trifluoro-2-((methoxycarbonyl)amino)-3,3-dimethylbutanamido)butan-2-yl N-(L-phenylalanyl)-N-methylglycinate]	–	–	–	–	–	–	–	6.54	Trace amounts

From patent US11052087B2, “Anti-HIV compounds” (priority 2018, dated 2021)
